Laboratory results from patent US7691887B2, “Triazole derivatives which are SMO antagonists” (Merck Sharp & Dohme Corp., priority 2007, dated 2010).

Tested on: Hh pathway (Smo) in Shh-Light II cells
Experiment: Shh-Light II Reporter Assay (firefly/Renilla luciferase)
Format: cell-based
Settings: Mus musculus; for IC50: 3 uM Purmorphamine stimulation, 30 hrs
Description: Shh-Light II Reporter Assay
Assay designed to measure firefly and Renilla luciferase, in the same well.
Prior to assay the Shh-Light II cells (ATCC Catalog No. CRL-2795) were cultured in growth media
Day −1: seed 60,000 Shh-Light II cells in assay medium 75 uL/well, in presence of DMSO/inhibitor.
Day 0: after overnight incubation at 37° C. 10% CO2 add 3 uM of Purmorphamine (Calbiochem 540220) in water.
Day 1: After 30 hrs at 37° C. 10% CO2 of incubation develop the assay, directly to cells in growth medium. • Add 75 μl of DualGlow Luciferase Reagent (Promega, E2940) • Incubate 10 min. in the dark • Read plate at Luminometer: TopCount, by PerkinElmer • Add 75 ul of DualGlow Stop & Glow • Incubate 10 min. in the dark • Read plate at Luminometer: TopCount, by PerkinElmer. • Output is the ratio between FireFly/Renilla counts Growth Media: For Growth:
DMEM: Dulbecco's Mod Eagle Medium with 0.11 G/L Pyr, with Pyridoxine. (GIBCO Cat No: 41966-029). The medium has complemented with 10% FCS (fetal bovine serum), 1% Penicillin-Streptomycin (10 mg/ml) (GIBCO, 15140-114) and 1% L-Glutamine 200 mM (100×) (GIBCO, 3042190) and 0.4 mg/ml of G418 (Roche) and 0.15 mg/ml Zeocyne (Invitrogen R-250-01). Cells cultured at 10% CO2.
DMEM: Dulbecco's Mod Eagle Medium with 0.11 G/L Pyr, with Pyridoxine. (GIBCO Cat No: 21063-045), without Phenol Red. The medium has complemented with 2% FCS (fetal bovine serum), 1% Penicillin-Streptomycin (10 mg/ml) (GIBCO, 15140-114) and 1% L-Glutamine 200mM (100×) (GIBCO, 3042190). Cells cultured at 10% CO2. DMSO 0.25%.

| IC50 | Structure (SMILES) | inhibition at 5 µM (5 μM compound) |
| --- | --- | --- |
| 4.2 µM | Cn1c(-c2ccccc2C(F)(F)F)nnc1C12CCC(c3noc(C(C)(C)F)n3)(CC1)CC2 [Example 3, 5-(1-Fluoro-1-methylethyl)-3-(4-{4-methyl-5-[2-(trifluoromethyl)phenyl]-4H-1,2,4-triazol-3-yl}bicyclo[2.2.2]oct-1-yl)-1,2,4-oxadiazole] |  |
| 2 µM | Cn1c(-c2ccccc2C(F)(F)F)nnc1C12CCC(c3nnc(C4CC(F)(F)C4)o3)(CC1)CC2 [Example 5, 2-(3,3-Difluorocyclobutyl)-5-(4-{4-methyl-5-[2-(trifluoromethyl)phenyl]-4H-1,2,4-triazol-3-yl}bicyclo[2.2.2]oct-1-yl)-1,3,4-oxadiazole] |  |
|  | Cn1c(-c2ccccc2C(F)(F)F)nnc1C12CCC(c3noc(C(C)(F)F)n3)(CC1)CC2 [Example 1, 5-(1,1-Difluoroethyl)-3-(4-{4-methyl-5-[2-(trifluoromethyl)phenyl]-4H-1,2,4-triazol-3-yl}bicyclo[2.2.2]oct-1-yl)-1,2,4-oxadiazole] | 35% |
| 9.3 µM | Cn1c(-c2ccccc2C(F)(F)F)nnc1C12CCC(c3nnc(C(C)(F)F)o3)(CC1)CC2 [Example 4, 2-(1,1-Difluoroethyl)-5-(4-{4-methyl-5-[2-(trifluoromethyl)phenyl]-4H-1,2,4-triazol-3-yl}bicyclo[2.2.2]oct-1-yl)-1,3,4-oxadiazole] |  |
| 1.4 µM | Cn1c(-c2ccccc2C(F)(F)F)nnc1C12CCC(c3noc(C4CC(F)(F)C4)n3)(CC1)CC2 [Example 2, 5-(3,3-Difluorocyclobutyl)-3-(4-{4-methyl-5-[2-(trifluoromethyl)phenyl]-4H-1,2,4-triazol-3-yl}bicyclo[2.2.2]oct-1-yl)-1,2,4-oxadiazole] |  |
